# Source: paper PMC8948406 (Journal for Immunotherapy of Cancer, 2022)
# Read-outs that look alike come from different tables or passages of the source.
# Columns and labels:
# [1] = for Cmax, Clast and tmax versus other part and niraparib monotherapy: first dose
# advanced solid tumors = settings: cited from earlier work
# [2] = Dostarlimab serum pharmacokinetics; assay type: in vivo, human; settings: coadministration of niraparib, carboplatin–paclitaxel, or bevacizumab
# [3] = target: PD-1 receptors on CD3+ T-cells (Homo sapiens, UniProt Q15116); experiment: PD-1 receptor occupancy by flow cytometry; assay type: cell-based; settings: by end of treatment; parts A, B and D
# Sequence of PD-1 receptors on CD3+ T-cells (Q15116 25-288): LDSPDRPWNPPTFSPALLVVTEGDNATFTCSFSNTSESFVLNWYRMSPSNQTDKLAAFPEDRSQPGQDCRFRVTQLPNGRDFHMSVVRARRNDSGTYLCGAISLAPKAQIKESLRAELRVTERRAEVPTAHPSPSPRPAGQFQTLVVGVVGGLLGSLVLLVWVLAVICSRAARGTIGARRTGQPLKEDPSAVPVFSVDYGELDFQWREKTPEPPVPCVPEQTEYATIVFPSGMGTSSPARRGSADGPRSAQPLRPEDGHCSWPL
# non-squamous NSCLC = settings: combination with chemotherapy; cited from earlier work
compound,measurement,setting,value
"NC(=O)c1cccc2cn(-c3ccc([C@@H]4CCCNC4)cc3)nc12 [niraparib, [3S]-3-[4-[7-(aminocarbonyl)-2H-indazol-2-yl]phenyl] piperidine]",Cmax lower in part C than in part A,[1]; 200 mg,47.1%
same,Exposures (Cmax and AUClast) versus monotherapy,"[1]; 200 mg, part A",comparable to monotherapy
same,AUClast higher in part C than in part A,[1]; 300 mg QD,approximately 46%
same,AUClast lower than niraparib monotherapy,"[1]; 300 mg, part A",9.6%
same,AUClast higher than niraparib monotherapy,"[1]; 300 mg, part C",31.6%
same,"Cmax, Clast and tmax versus other part and niraparib monotherapy",[1]; 300 mg,consistent across both parts and similar to PK data for niraparib monotherapy
same,"Cmax, Clast and tmax versus other part and niraparib monotherapy","[1]; 300 mg, listed as Niraparib",consistent in parts A and C
same,Variability of niraparib exposure,[1]; regardless of dose and cohort,~ 50%
same,"Variability of exposure, monotherapy data",advanced solid tumors,up to 66%
dostarlimab: PD-1 inhibitor; IgG4 humanized monoclonal antibody that binds with high affinity to PD-1,Effect of the combination partners on dostarlimab PK,[2],no observed impact
same,Overall mean PD-1 receptor occupancy,[3],99.0%
"pembrolizumab: anti-PD-1 antibody, given with chemotherapy in the cited trials",Grade ≥3 neutropenia,non-squamous NSCLC,15.8%
